From US4416888A, “3-(2-(4-Piperidyl)-1-alkyl-ethyl)-indoles and their use as medicaments” (Pharmindustrie, priority 1981, dated 1983) come the findings set out here.

Like-named read-outs stand apart in the source and are kept apart here.

Data set [1] relates to male mice CD1 (Charles RIVER). The data set is described as follows: Acute toxicity in male mice CD1, oral administration. In kind it is in vivo. The note with it: male CD1 mouse. As for the experimental part:
The acute toxicity of the products has been established in male mice CD1 (Charles RIVER) by oral administration. The compounds according to the invention are relatively not very toxic substances. For example, the product of Example 1 is non-toxic in the mouse if administered at a dose of 100 mg/kg.

Data set [2] relates to serotonin release, human blood platelets. The data set is described as follows: Serotonin release from human blood platelets. In kind it is cell-based. As to conditions: for activation at 50 µM: Platelet, product concentration 5 × 10^-5 moles per liter, increase relative to controls, human blood platelets, read-out: Percent of increased serotonin release. As for the experimental part: "Platelets Function and Thrombosis, a Review of Methods" p.
The action of the products on serotonin release is tested at a concentration of 5×10^-5 moles per liter.

The test system of data set [3] is serotonin uptake by human blood platelets. The data set is described as follows: Inhibition of serotonin uptake in human blood platelets. In kind it is cell-based. The note with it: Platelet, read-out: Inhibition of serotonin uptake I50. From the text: It is known that serotonin uptake by the blood platelets is a good model for the uptake of this amine by the neurons (cf. J. Tuomisto, J. Pharm., Pharmac., 26, 92 (1974). When applied to the study of medicaments, any method involving the use of blood platelets is of great interest because it allows the use of human cells, so that its estimation character is good.
"Platelets Function and Thrombosis, a Review of Methods" p. 335 (Plenum Press, London, 1972).
1. Inhibition of Serotonin Uptake
The results are expressed by inhibitory dose 50% or I50 which represents the dose of the product in micromoles per liter which reduce the rate of serotonin uptake by 50%.

For `CC(CC1CCNCC1)c1c[nH]c2ccccc12` (stereo not shown) [Example 1, 3-[2-(4-Piperidyl)-1-Methyl-Ethyl]-Indole], in data set [1], the “Acute toxicity at 100 mg/kg” value is “non-toxic”. Further, the activation at 50 µM in data set [2] came out at 62%. In data set [3] (Homo sapiens), the IC50 worked out at 50 nM.
As for `CC(N)Cc1ccc(Cl)cc1` (stereo not shown) [p-chloroamphetamine], the activation at 50 µM in data set [2] came to 51%. In addition, the “Serotonin release (in words)” value in data set [2] (compared with p-chloroamphetamine) is listed as “induce serotonin release”. In addition, the IC50 in data set [3] (Homo sapiens) came out at 12000 nM.
As to `c1ccc2c(CCC3CCNCC3)c[nH]c2c1` [Indalpine, 3-[2-(4-piperidyl)-ethyl]-indole], in data set [2], the activation at 50 µM came to 22%. In addition, the IC50 in data set [3] (human blood platelets, dose reducing the rate of serotonin uptake by 50%) worked out at 35 nM.
On to `CN(C)CCCN1c2ccccc2CCc2ccccc21` [Imipramine], for which the activation at 50 µM in data set [2] was 12%. In data set [3] (Homo sapiens), the IC50 stood at 400 nM.
